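In this assay, cells in 96-well plates receive the compound at five concentrations for 48 hours. Endpoints are linearly interpolated between the surrounding concentrations. At the TGI there is no net growth.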
Assays:
Experiment in all cases: NCI-60 cell line screen, 48 h
ACHN renal = test system: ACHN renal
CCRF-CEM leukemia = test system: CCRF-CEM leukemia
HL-60(TB) leukemia = test system: HL-60(TB) leukemia
HOP-62 NSCLC = test system: HOP-62 NSCLC
M14 melanoma = test system: M14 melanoma
NCI-H460 lung = test system: NCI-H460 lung
NCI-H522 lung = test system: NCI-H522 lung
OVCAR-4 ovarian = test system: OVCAR-4 ovarian
SF-295 CNS = test system: SF-295 CNS
SF-539 CNS = test system: SF-539 CNS

Row | Compound | TGI (ACHN renal) | TGI (CCRF-CEM leukemia) | TGI (HL-60(TB) leukemia) | TGI (HOP-62 NSCLC) | TGI (M14 melanoma) | TGI (NCI-H460 lung) | TGI (NCI-H522 lung) | TGI (OVCAR-4 ovarian) | TGI (SF-295 CNS) | TGI (SF-539 CNS)
1 | O=C1Cc2cc3ccccc3nc2-c2ccccc2N1 | > 100 µM | > 100 µM | > 100 µM | > 100 µM | > 100 µM | > 100 µM | > 100 µM | > 100 µM | > 100 µM | > 100 µM
2 | CCCOC(=O)c1cc(O)c(O)c(O)c1 | > 100 µM | > 100 µM | > 100 µM | > 100 µM | > 100 µM | > 100 µM | 77 µM | > 100 µM | > 100 µM | 70.9 µM
3 | O=c1c(-c2nc3ccccc3c3ccccc3c2=O)nc2ccccc2c2ccccc12 | > 100 µM | 86.8 µM | 58.5 µM | > 100 µM | > 100 µM | > 100 µM | > 100 µM | > 100 µM | > 100 µM | 55.3 µM
4 | CCOP1(=O)CC(C)=C(Cl)C(OC)C1 (stereo not given) | > 100 µM | > 100 µM | > 100 µM | > 100 µM | > 100 µM | > 100 µM | > 100 µM | > 100 µM | > 100 µM | > 100 µM
5 | C/C(=C\C(=O)Nc1ccc2n[nH]nc2c1)Nc1ccc2n[nH]nc2c1 | > 100 µM | > 100 µM | > 100 µM | > 100 µM | > 100 µM | > 100 µM | > 100 µM | > 100 µM | > 100 µM | > 100 µM
6 | COc1cc(/C=C(\C)[N+](=O)[O-])cc(OC)c1 | 30.3 µM | 5.77 µM | 4.33 µM | 33.7 µM | 28.2 µM | 39.5 µM | 3.64 µM | 33.5 µM | 53.6 µM | 16.9 µM
7 | ClC1=NSSC1(Cl)Cl | 39.5 µM | > 100 µM | 5.25 µM | > 100 µM | 40.1 µM | > 100 µM | 38.8 µM | > 100 µM | > 100 µM | > 100 µM
8 | Nc1cccc(-c2cc(=O)c3cc4c(cc3[nH]2)OCO4)c1 | > 100 µM | > 100 µM | > 100 µM | 29.2 µM | > 79.6 µM | > 100 µM | 0.881 µM | > 100 µM | > 26.4 µM | 2.79 µM
9 | COC(=O)c1ccccc1CC1Cc2c(C)ccc(C)c2C1=O (stereo not given) | > 100 µM | 52.8 µM | 55.6 µM | > 100 µM | > 100 µM | > 100 µM | 58.1 µM | > 100 µM | > 100 µM | > 100 µM
10 | Cc1cccc2c(=O)c3c(O)cc(O)cc3n(C)c12 | > 100 µM | > 100 µM | > 100 µM | > 100 µM | > 100 µM | > 100 µM | > 100 µM | > 100 µM | > 100 µM | > 100 µM
11 | NCCCN(CCCCN(CCCN)CCCc1ccccc1)CCCc1ccccc1 | 9.24 µM | 7.83 µM | 7.44 µM | 25.4 µM | 3.57 µM | 2.72 µM | 7.17 µM | 17.1 µM | 3.16 µM | 3.55 µM
12 | NC1=Nc2cc(C(F)(F)F)ccc2Sc2nc3ccccc3n21 | > 100 µM | > 24.8 µM | > 26 µM | > 100 µM | > 43.2 µM | > 100 µM | > 71.1 µM | > 100 µM | > 100 µM | > 100 µM
13 | COCN1C(=O)[C@@H]2CCCN2C(=O)c2ccc(N)cc21 | > 100 µM | > 100 µM | > 100 µM | > 100 µM | > 100 µM | > 100 µM | > 100 µM | > 100 µM | > 100 µM | > 100 µM
14 | C=C1OC2OC(C)C(NC(=O)OCC(Cl)(Cl)Cl)C(OC(C)=O)C2O1 (stereo not given) | > 100 µM | > 100 µM | > 100 µM | > 100 µM | > 100 µM | > 100 µM | > 100 µM | > 100 µM | > 100 µM | > 100 µM
15 | Cc1ccc(C)c2c1C1CCCCC3(OCCCO3)C21O (stereo not given) | > 100 µM | > 100 µM | > 100 µM | > 100 µM | > 100 µM | > 100 µM | > 100 µM | > 100 µM | > 100 µM | > 100 µM
16 | OCCc1ccsc1-c1sc(-c2cc(CCO)c(-c3sc(-c4cc(CCO)c(-c5sccc5CCO)s4)cc3CCO)s2)cc1CCO | 3 µM | > 25.4 µM | 3.61 µM | 2.76 µM | 3.36 µM | 2.95 µM | 2.36 µM | 2.52 µM | 2.7 µM | 2.95 µM
17 | CCN(CC)c1c(C(C)(C)C)c(=O)n2ccsc2c1OC(C)=O | 29.7 µM | > 100 µM | > 100 µM | 26.1 µM | 31.2 µM | 31.3 µM | 27.7 µM | 28.9 µM | 30.7 µM | 33.3 µM
